Where two headings read alike, the source gives them in different places.
Target: Recombinant human liver glucokinase (Homo sapiens (Human), UniProt P35557)
Assay: Glucokinase activation assay (G6PDH-coupled, Thio-NADH absorbance at 405 nm)
Assay type: biochemical
Conditions: for EC50: 30° C.
From the text: The glucokinase activity can, for instance, be determined without directly measuring glucose-6-phosphate by measuring the amount of Thio-NADH generated during the production of phosphogluconolactone from glucose-6-phosphate by a reporter enzyme glucose-6-phosphate dehydrogenase.
To test the exemplified compounds, the following assay was employed. Recombinant human liver glucokinase was expressed as a FLAG fusion protein in E. coli, and purified on […] M2 AFFINITY GEL (Sigma). The assay was carried out at 30° C. in a 96-well plate. In the plate was distributed 69 μl each of assay buffer (25 mM Hepes Buffer: pH=7.2, 2 mM MgCl2, 1 mM ATP, 0.5 mM TNAD, 1 mM dithiothreitol), to which was added 1 μl of a DMSO solution of the compound or DMSO as control. Then, 20 μl of pre-ice-cooled enzyme mixture (FLAG-GK, 20 U/ml G6PDH) was distributed thereto, to which was added 10 μl of 25 mM glucose as substrate to initiate the reaction (final glucose concentration=2.5 mM). After starting the reaction, the absorbance at 405 nm was measured every 30 seconds for 10 minutes to evaluate the compound based on the initial increase for 5 minutes. FLAG-GK was added so that the increase of absorbance after 5 minutes fell between 0.05 to 0.1 in the presence of 1% DMSO.
The OD values of the respective compounds were measured in the respective concentrations, wherein the OD value of DMSO as control is regarded as 100%.

Sequence of Recombinant human liver glucokinase (P35557 other isoform, or with tags, fused parts or gaps): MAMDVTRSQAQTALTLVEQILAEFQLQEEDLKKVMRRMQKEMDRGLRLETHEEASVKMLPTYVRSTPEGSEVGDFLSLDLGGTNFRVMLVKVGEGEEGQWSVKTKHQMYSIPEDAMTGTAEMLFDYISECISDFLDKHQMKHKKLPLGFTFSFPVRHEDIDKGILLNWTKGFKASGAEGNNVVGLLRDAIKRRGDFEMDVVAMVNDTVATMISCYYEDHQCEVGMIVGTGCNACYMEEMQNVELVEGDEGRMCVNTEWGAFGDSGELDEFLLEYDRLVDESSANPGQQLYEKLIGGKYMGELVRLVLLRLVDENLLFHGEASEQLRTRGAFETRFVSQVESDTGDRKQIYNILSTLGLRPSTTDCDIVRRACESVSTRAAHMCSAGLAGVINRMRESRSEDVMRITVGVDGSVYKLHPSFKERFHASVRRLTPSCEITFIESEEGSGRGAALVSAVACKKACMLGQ

COc1ccc(Sc2ccc(Sc3nncn3C)nc2C(=O)Nc2ncc(SC(C)(C)C(=O)O)s2)cc1 [Example 4, 2-({2-[({3-[(4-methoxyphenyl)sulfanyl]-6-[(4-methyl-4H-1,2,4-triazol-3-yl)sulfanyl]pyridin-2-yl}carbonyl)amino]-1,3-thiazol-5-yl}sulfanyl)-2-methylpropanoic acid]
Emax: 417%
EC50 (2.5 mM Glu): 0.0651 µM

CCOC(=O)CSc1cnc(NC(=O)c2nc(Sc3nncn3C)ccc2Sc2ccc(Cl)c(Cl)c2)s1 [Example 51, Ethyl ({2-[({3-[(3,4-dichlorophenyl)sulfanyl]-6-[(4-methyl-4H-1,2,4-triazol-3-yl)sulfanyl]pyridin-2-yl}carbonyl)amino]-1,3-thiazol-5-yl}sulfanyl)acetate]
Emax: 479%
EC50 (2.5 mM Glu): 0.0062 µM

COC(=O)CCc1cnc(NC(=O)c2nc(Sc3ccccn3)ccc2Sc2ccc(OC)cc2)s1 [Example 14, Methyl 3-{2-[({3-[(4-methoxyphenyl)sulfanyl]-6-(pyridin-2-ylsulfanyl)pyridin-2-yl}carbonyl)amino]-1,3-thiazol-5-yl}propanoate]
Emax: 486%
EC50 (2.5 mM Glu): 0.29 µM

Cn1cnnc1Sc1ccc(Sc2ccc(C(F)(F)F)cc2)c(C(=O)Nc2nc(CC(=O)O)c(Cl)s2)n1 [Example 42, (5-Chloro-2-{[(6-[(4-methyl-4H-1,2,4-triazol-3-yl)sulfanyl]-3-{[4-(trifluoromethyl)phenyl]sulfanyl}pyridin-2-yl)carbonyl]amino}-1,3-thiazol-4-yl)acetic acid]
Emax: 466%
EC50 (2.5 mM Glu): 0.044 µM

CCOC(=O)Cc1nc(NC(=O)c2nc(Sc3ccccn3)ccc2Sc2ccc(OC)cc2)sc1Cl [Example 12]
Emax: 427%
EC50 (2.5 mM Glu): 0.0476 µM

COc1ccc(Sc2ccc(Sc3ccccn3)nc2C(=O)Nc2ncc(SCC(=O)O)s2)cc1 [Example 11, ({2-[({3-[(4-Methoxyphenyl)sulfanyl]-6-(pyridin-2-ylsulfanyl)pyridin-2-yl}carbonyl)amino]-1,3-thiazol-5-yl}sulfanyl)acetic acid]
Emax: 509%
EC50 (2.5 mM Glu): 0.0109 µM

COc1ccc(Sc2ccc(Sc3nncn3C)nc2C(=O)Nc2ncc(SCC(=O)O)s2)cc1 [Example 2, ({2-[({3-[(4-methoxyphenyl)sulfanyl]-6-[(4-methyl-4H-1,2,4-triazol-3-yl)sulfanyl]pyridin-2-yl}carbonyl)amino]-1,3-thiazol-5-yl}sulfanyl)acetic acid]
Emax: 446%
EC50 (2.5 mM Glu): 0.0568 µM

CCOC(=O)CSc1cnc(NC(=O)c2nc(Sc3nncn3C)ccc2Sc2ccc(OC)cc2)s1 [Example 1, Ethyl ({2-[({3-[(4-methoxyphenyl)sulfanyl]-6-[(4-methyl-4H-1,2,4-triazol-3-yl)sulfanyl]pyridin-2-yl}carbonyl)amino]-1,3-thiazol-5-yl}sulfanyl)acetate]
Emax: 471%
EC50 (2.5 mM Glu): 0.0075 µM

CC(C)(CSc1cnc(NC(=O)c2nc(Sc3ccccn3)ccc2Sc2ccc(F)cc2)s1)C(=O)O [Example 38, 3-({2-[({3-[(4-Fluorophenyl)sulfanyl]-6-(pyridin-2-ylsulfanyl)pyridin-2-yl}carbonyl)amino]-1,3-thiazol-5-yl}sulfanyl)-2,2-dimethylpropanoic acid]
Emax: 550%
EC50 (2.5 mM Glu): 0.032 µM

CCOP(=O)(Cc1cnc(NC(=O)c2nc(Sc3nncn3C)ccc2Sc2ccc(Cl)c(Cl)c2)s1)OCC [Example 50]
Emax: 379%
EC50 (2.5 mM Glu): 0.0571 µM

COC(=O)CCc1cnc(NC(=O)c2nc(Sc3nncn3C)ccc2Sc2ccc(C(F)(F)F)cc2)s1 [Example 48, Methyl 3-(2-{[(6-[(4-methyl-4H-1,2,4-triazol-3-yl)sulfanyl]-3-{[4-(trifluoromethyl)phenyl]sulfanyl}pyridin-2-yl)carbonyl]amino}-1,3-thiazol-5-yl)propanoate]
Emax: 428%
EC50 (2.5 mM Glu): 0.0718 µM

O=C(O)CCc1cnc(NC(=O)c2nc(Sc3ccccn3)ccc2Sc2ccc(F)cc2)s1 [Example 40, 3-{2[({3-[(4-Fluorophenyl)sulfanyl]-6-(pyridin-2-ylsulfanyl)pyridin-2-yl}carbonyl)amino]-1,3-thiazol-5-yl}propanoic acid]
Emax: 658%
EC50 (2.5 mM Glu): 0.428 µM

O=C(O)CSc1cnc(NC(=O)c2nc(Sc3ccccn3)ccc2Sc2ccc(F)cc2)s1 [Example 36, ({2-[({3-[(4-Fluorophenyl)sulfanyl]-6-(pyridin-2-ylsulfanyl)pyridin-2-yl}carbonyl)amino]-1,3-thiazol-5-yl}sulfanyl)acetic acid]
Emax: 514%
EC50 (2.5 mM Glu): 0.034 µM

CCOC(=O)Cc1nc(NC(=O)c2nc(Sc3ccccn3)ccc2Sc2ccc(F)cc2)sc1Cl [Example 31, Ethyl {5-chloro-2-[({3-[(4-fluorophenyl)sulfanyl]-6-(pyridin-2-ylsulfanyl)pyridin-2-yl}carbonyl)amino]-1,3-thiazol-4-yl}acetate]
Emax: 436%
EC50 (2.5 mM Glu): 0.127 µM

Cn1cnnc1Sc1ccc(Sc2ccc(C(F)(F)F)cc2)c(C(=O)Nc2nc(CC(=O)O)cs2)n1 [Example 47, (2-{[(6-[(4-Methyl-4H-1,2,4-triazol-3-yl)sulfanyl]-3-{[4-(trifluoromethyl)phenyl]sulfanyl}pyridin-2-yl)carbonyl]amino}-1,3-thiazol-4-yl)acetic acid]
Emax: 633%
EC50 (2.5 mM Glu): 0.222 µM

CNC(=O)CSc1cnc(NC(=O)c2nc(Sc3nncn3C)ccc2Sc2ccc(OC)cc2)s1 [Example 3, 3-[(4-methoxyphenyl)sulfanyl]-N-(5-{[2-(methylamino)-2-oxoethyl]sulfanyl}-1,3-thiazol-2-yl)-6-[(4-methyl-4H-1,2,4-triazol-3-yl)sulfanyl]pyridine-2-carboxamide]
Emax: 572%
EC50 (2.5 mM Glu): 0.0108 µM

CCOC(=O)Cc1csc(NC(=O)c2nc(Sc3ccccn3)ccc2Sc2ccc(F)cc2)n1 [Example 33, Ethyl {2-[({3-[(4-fluorophenyl)sulfanyl]-6-(pyridin-2-ylsulfanyl)pyridin-2-yl}carbonyl)amino]-1,3-thiazol-4-yl}acetate]
Emax: 456%
EC50 (2.5 mM Glu): 4.66 µM

CCOC(=O)Cc1nc(NC(=O)c2nc(Sc3nncn3C)ccc2Sc2ccc(Cl)c(Cl)c2)sc1Cl [Example 53, Ethyl {5-chloro-2-[({3-[(3,4-dichlorophenyl)sulfanyl]-6-[(4-methyl-4H-1,2,4-triazol-3-yl)sulfanyl]pyridin-2-yl}carbonyl)amino]-1,3-thiazol-4-yl}acetate]
Emax: 426%
EC50 (2.5 mM Glu): 0.0076 µM

O=C(O)Cc1nc(NC(=O)c2nc(Sc3ccccn3)ccc2Sc2ccc(F)cc2)sc1Cl [Example 32, {5-Chloro-2-[({3-[(4-fluorophenyl)sulfanyl]-6-(pyridin-2-ylsulfanyl)pyridin-2-yl}carbonyl)amino]-1,3-thiazol-4-yl}acetic acid]
Emax: 643%
EC50 (2.5 mM Glu): 0.0161 µM

CCOC(=O)CSc1cnc(NC(=O)c2nc(Sc3ccccn3)ccc2Sc2ccc(OC)cc2)s1 [Example 10, Ethyl ({2-[({3-[(4-methoxyphenyl)sulfanyl]-6-(pyridin-2-ylsulfanyl)pyridin-2-yl}carbonyl)amino]-1,3-thiazol-5-yl}sulfanyl)acetate]
EC50 (2.5 mM Glu): 0.0352 µM
Emax (2.5 mM Glu, OD value of DMSO as control regarded as 100%, read-out: Emax): 498%

O=C(O)Cc1nc(NC(=O)c2nc(Sc3ccc(F)cc3)ccc2Sc2ccc(F)cc2)sc1Cl [Example 30, {2-[({3,6-Bis[(4-fluorophenyl)sulfanyl]pyridin-2-yl}carbonyl)amino]-5-chloro-1,3-thiazol-4-yl}acetic acid]
Emax: 393%
EC50 (2.5 mM Glu): 0.0163 µM

CCOP(=O)(Cc1cnc(NC(=O)c2nc(Sc3nncn3C)ccc2Sc2ccc(C(F)(F)F)cc2)s1)OCC [Example 45, Diethyl [(2-{[(6-[(4-methyl-4H-1,2,4-triazol-3-yl)sulfanyl]-3-{[4-(trifluoromethyl)phenyl]sulfanyl}pyridin-2-yl)carbonyl]amino}-1,3-thiazol-5-yl)methyl]phosphonate]
Emax: 273%
EC50 (2.5 mM Glu): 0.35 µM

Cn1cnnc1Sc1ccc(Sc2ccc(C(F)(F)F)cc2)c(C(=O)Nc2ncc(CCC(=O)O)s2)n1 [Example 49, 3-(2-{[(6-[(4-Methyl-4H-1,2,4-triazol-3-yl)sulfanyl]-3-{[4-(trifluoromethyl)phenyl]sulfanyl}pyridin-2-yl)carbonyl]amino}-1,3-thiazol-5-yl)propanoic acid]
Emax: 549%
EC50 (2.5 mM Glu): 0.173 µM

CCOC(=O)CSc1cnc(NC(=O)c2nc(Sc3nncn3C)ccc2Sc2ccc(C(F)(F)F)cc2)s1 [Example 43, Ethyl [(2-{[(6-[(4-methyl-4H-1,2,4-triazol-3-yl)sulfanyl]-3-{[4-(trifluoromethyl)phenyl]sulfanyl}pyridin-2-yl)carbonyl]amino}-1,3-thiazol-5-yl)sulfanyl]acetate]
Emax: 384%
EC50 (2.5 mM Glu): 0.0283 µM

O=C(O)Cc1csc(NC(=O)c2nc(Sc3ccccn3)ccc2Sc2ccc(F)cc2)n1 [Example 34, {2-[({3-[(4-Fluorophenyl)sulfanyl]-6-(pyridin-2-ylsulfanyl)pyridin-2-yl}carbonyl)amino]-1,3-thiazol-4-yl}acetic acid]
Emax: 762%
EC50 (2.5 mM Glu): 0.413 µM
